What was measured:
cells = test: Agar diffusion plaque inhibition assay, zone of cytotoxicity (cell death); assay type: cell-based; settings: 50 μg of test compound
Procedure: These tests were performed by the methods described in the following published reference: (H. E. Renis, C. A. Hollowell, and G. E. Underwood, J. Med. Chem., Vol 10, pp 777-782 (1967)). Both DNA and RNA-containing viruses were used. The results are presented below as the zone of cytotoxicity (cell death)/zone of viral plaque inhibition for 50 μg of test compound.

PR-8 Influenza (RNA) = assay type: cell-based, Influenza virus; settings: PR8; 50 μg of test compound
[1] = system: Coxsackie A21 virus (RNA); test: Agar diffusion plaque inhibition assay, COE; assay type: cell-based; settings: 50 μg of test compound
[2] = system: Parainfluenza 3 virus (RNA); assay type: cell-based; settings: HA-1; 50 μg of test compound
Equine rhinovirus (RNA) = test: Agar diffusion plaque inhibition assay, E.R.; assay type: cell-based; settings: 50 μg of test compound
[3] = system: Herpes simplex virus type I (DNA); test: Agar diffusion plaque inhibition assay, HSV-1; assay type: cell-based; settings: 50 μg of test compound
[4] = system: Herpes simplex virus type II (DNA); test: Agar diffusion plaque inhibition assay, HSV-2; assay type: cell-based; settings: 50 μg of test compound
Vaccinia virus (DNA) = assay type: cell-based; settings: VACC.; 50 μg of test compound

## COc1ccc(C[C@H]2C(=O)O[C@H](C)[C@H](NC(=O)[C@@H](CC(C)C)N(C)C(=O)C3CCCN3C(=O)C(C)OC(C)=O)C(=O)NC(CC(C)C)C(OC(C)=O)CC(=O)OC(C(C)C)C(=O)C(C)C(=O)N[C@@H](CC(C)C)C(=O)N3CCC[C@H]3C(=O)N2C)cc1 (some centres unmarked) [Diacetyl]
cells; COE
  zone of cytotoxicity (cell death): 3
cells; E.R.
  zone of cytotoxicity (cell death): 2
cells; HA-1
  zone of cytotoxicity (cell death): 1
cells; HSV-1
  zone of cytotoxicity (cell death): 3
cells; HSV-2
  zone of cytotoxicity (cell death): 3
cells; PR8
  zone of cytotoxicity (cell death): 3
cells; VACC.
  zone of cytotoxicity (cell death): 3
PR-8 Influenza (RNA)
  zone of viral plaque inhibition: 0
[1]
  zone of viral plaque inhibition: 3
[2]
  zone of viral plaque inhibition: 0
Equine rhinovirus (RNA)
  zone of viral plaque inhibition: 4
[3]
  zone of viral plaque inhibition: 4
[4]
  zone of viral plaque inhibition: 4
Vaccinia virus (DNA)
  zone of viral plaque inhibition: 4

Source: patent US4493796A, “Didemnins A, B, C, and derivatives thereof, as antiviral agents” (Board of Trustees, Univ. of Ill., priority 1984, dated 1985)
